Laboratory results published in ChEMBL document CHEMBL1201862, “PubChem BioAssay data set” (2004).
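Where inhibition never reached the appropriate level, the endpoint shown equals the highest concentration tested. Otherwise, values were interpolated linearly from a five-concentration, 48-hour dose response in 96-well plates. Abbreviation: GI50, concentration required for 50% inhibition of growth.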 Active and inactive are the calls of the source. Rule as the data show it: active = GI50 up to about 1.1 µM and inactive = higher.

How the values were obtained:
Experiment in all cases: inhibition of tumour cell growth, NCI panel, 48 h
K562 = tested on: K562
MDA-MB-231 = tested on: MDA-MB-231
HCT-116 = tested on: HCT-116
T47D = tested on: T47D
OVCAR-5 = tested on: OVCAR-5
SR = tested on: SR
LOX IMVI = tested on: LOX IMVI
UACC-257 = tested on: UACC-257
HL-60 = tested on: HL-60
MDA-N = tested on: MDA-N
BT-549 = tested on: BT-549
SF-295 = tested on: SF-295
Malme-3M = tested on: Malme-3M
SNB-75 = tested on: SNB-75
CCRF-CEM = tested on: CCRF-CEM
OVCAR-4 = tested on: OVCAR-4
SF-539 = tested on: SF-539
NCI-H460 = tested on: NCI-H460
OVCAR-3 = tested on: OVCAR-3
786-0 = tested on: 786-0

Compound	GI50 (K562)	GI50 (MDA-MB-231)	GI50 (HCT-116)	GI50 (T47D)	GI50 (OVCAR-5)	GI50 (SR)	GI50 (LOX IMVI)	GI50 (UACC-257)	GI50 (HL-60)	GI50 (MDA-N)	GI50 (BT-549)	GI50 (SF-295)	GI50 (Malme-3M)	GI50 (SNB-75)	GI50 (CCRF-CEM)	GI50 (OVCAR-4)	GI50 (SF-539)	GI50 (NCI-H460)	GI50 (OVCAR-3)	GI50 (786-0)
O=C1OC(C2Cc3ccc4c(c3C2=O)CCCC4)c2ccccc21 (centres undefined)	21.8 µM (inactive)	36.2 µM (inactive)	40 µM (inactive)	63 µM (inactive)	> 100 µM (inactive)	> 10 µM (inactive)	25.5 µM (inactive)	52.2 µM (inactive)	71.3 µM (inactive)	34.8 µM (inactive)	54.8 µM (inactive)	40.1 µM (inactive)	24 µM (inactive)	65.6 µM (inactive)	15.3 µM (inactive)	24.8 µM (inactive)	24.7 µM (inactive)	27.3 µM (inactive)	34.3 µM (inactive)	50.8 µM (inactive)
Cc1cc(S(=O)(=O)NC(=C(C#N)C#N)[n+]2ccc(N(C)C)cc2)c([S-])cc1Cl	> 100 µM (inactive)	> 100 µM (inactive)	> 100 µM (inactive)	> 100 µM (inactive)	> 100 µM (inactive)	> 100 µM (inactive)	–	> 100 µM (inactive)	> 100 µM (inactive)	> 100 µM (inactive)	> 100 µM (inactive)	> 100 µM (inactive)	> 100 µM (inactive)	–	> 100 µM (inactive)	99.5 µM (inactive)	> 100 µM (inactive)	> 100 µM (inactive)	> 100 µM (inactive)	> 100 µM (inactive)
CCSC1=CC(=O)c2nc3ccccc3c3ccnc1c23	1.35 µM (inactive)	4.14 µM (inactive)	2.72 µM (inactive)	11.2 µM (inactive)	3.85 µM (inactive)	2.7 µM (inactive)	4.51 µM (inactive)	1.95 µM (inactive)	2.06 µM (inactive)	1.95 µM (inactive)	12.9 µM (inactive)	13.8 µM (inactive)	1.67 µM (inactive)	6.43 µM (inactive)	2.44 µM (inactive)	2.69 µM (inactive)	5.43 µM (inactive)	6.24 µM (inactive)	2.56 µM (inactive)	3.04 µM (inactive)
Cc1cn(CCCCOC(=O)NC(CCCNC(N)=O)C(=O)O)c(=O)[nH]c1=O (centres undefined)	> 100 µM (inactive)	> 100 µM (inactive)	> 100 µM (inactive)	> 100 µM (inactive)	> 100 µM (inactive)	> 100 µM (inactive)	> 100 µM (inactive)	> 100 µM (inactive)	> 100 µM (inactive)	> 100 µM (inactive)	> 100 µM (inactive)	> 100 µM (inactive)	–	> 100 µM (inactive)	> 100 µM (inactive)	> 100 µM (inactive)	> 100 µM (inactive)	> 100 µM (inactive)	> 100 µM (inactive)	> 100 µM (inactive)
N#Cc1c(C#N)c(-c2cccc([N+](=O)[O-])c2)n(-c2ccccc2)c1N	> 100 µM (inactive)	38.7 µM (inactive)	> 100 µM (inactive)	> 100 µM (inactive)	> 100 µM (inactive)	> 100 µM (inactive)	> 100 µM (inactive)	> 100 µM (inactive)	> 100 µM (inactive)	> 100 µM (inactive)	5.11 µM (inactive)	63.2 µM (inactive)	> 100 µM (inactive)	3.33 µM (inactive)	> 100 µM (inactive)	11.5 µM (inactive)	21.1 µM (inactive)	–	> 100 µM (inactive)	51.5 µM (inactive)
COc1ccc2c(c1)C1=NCCN(CCN(C)C)c3ccc([N+](=O)[O-])c(c31)N2	0.364 µM (active)	0.196 µM (active)	0.116 µM (active)	0.156 µM (active)	1.59 µM (inactive)	0.404 µM (active)	0.351 µM (active)	1.38 µM (inactive)	0.427 µM (active)	0.542 µM (active)	0.815 µM (active)	0.35 µM (active)	0.431 µM (active)	0.173 µM (active)	0.258 µM (active)	0.191 µM (active)	0.432 µM (active)	0.354 µM (active)	0.499 µM (active)	0.255 µM (active)
CCN1CCN(c2nc3ccc([N+](=O)[O-])cc3nc2C(=O)c2ccccc2)CC1	6.31 µM (inactive)	14.6 µM (inactive)	17.1 µM (inactive)	26.7 µM (inactive)	20.1 µM (inactive)	2.47 µM (inactive)	4.98 µM (inactive)	20.1 µM (inactive)	26.2 µM (inactive)	18.7 µM (inactive)	5.64 µM (inactive)	16.7 µM (inactive)	13.1 µM (inactive)	–	2.12 µM (inactive)	–	16.1 µM (inactive)	21.8 µM (inactive)	16.8 µM (inactive)	18.7 µM (inactive)
Cc1cc2c(cc1C)OC(=O)CC2	> 100 µM (inactive)	> 100 µM (inactive)	> 100 µM (inactive)	> 100 µM (inactive)	> 100 µM (inactive)	> 100 µM (inactive)	> 100 µM (inactive)	> 100 µM (inactive)	> 100 µM (inactive)	> 100 µM (inactive)	> 100 µM (inactive)	> 100 µM (inactive)	> 100 µM (inactive)	> 100 µM (inactive)	> 100 µM (inactive)	> 100 µM (inactive)	> 100 µM (inactive)	> 100 µM (inactive)	> 100 µM (inactive)	> 100 µM (inactive)
